Source: US8927500B2, “Peptidomimetic macrocycles” (Aileron Therapeutics, Inc., priority 2012, dated 2015)
Where a SMILES comes first, the peptide text is derived from it. Bridges are numbered along the chain shown (N, C = ends). [ ]: non-standard residue; d: D form. R8 = C=CCCCCCC[C@@](C)(N)C(=O)O; Chg = N[C@H](C(=O)O)C1CCCCC1; hLeu = CC(C)CC[C@H](N)C(=O)O; S5 = C=CCCC[C@](C)(N)C(=O)O; Nle = CCCC[C@H](N)C(=O)O; Ac3c = NC1(C(=O)O)CC1

Tests used:
SJSA-1 cells = test: Cell lysis by peptidomimetic macrocycles (LDH release); type: cell-based; details: 1 h at 37C
Method: On the day of the assay, media was exchanged with RPMI 1% FBS media, 90 uL of media per well.
10 mM stock solutions of the peptidomimetic macrocycles were prepared in 100% DMSO.
The negative control (non-lytic) sample was 0.5% DMSO alone and positive control (lytic) samples include 10 uM Melittin and 1% Triton X-100.
Cell plates were incubated for 1 hour at 37C. After the 1 hour incubation, the morphology of the cells is examined by microscope and then the plates were centrifuged at 1200 rpm for 5 minutes at room temperature. 40 uL of supernatant for each peptidomimetic macrocycle and control sample is transferred to clear assay plates.

Caspase 3 = Caspase 3 detection assay in SJSA1 cells; type: cell-based; details: 48 h, Caspase 3 activation over DMSO-treated cells; for caspase 0.3 uM: 0.3 uM peptide; for caspase 3 uM: 3 uM peptide; for caspase 10 uM: 10 uM peptide; for caspase 30 uM: 30 uM peptide; for caspase 1 uM: 1 uM peptide
MDMX = molecular target: T1, MDMX (Homo sapiens, UniProt O15151); test: Competitive fluorescence polarization assay for MDMX; type: binding; details: competitive FP assay; for IC50: read-out: IC50 (MDMX); for Ki: read-out: Ki (MDMX)
T1 sequence (O15151 1-125): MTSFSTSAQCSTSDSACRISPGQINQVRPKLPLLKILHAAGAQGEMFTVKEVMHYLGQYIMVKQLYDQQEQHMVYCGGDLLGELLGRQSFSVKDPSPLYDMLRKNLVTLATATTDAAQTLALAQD

MDM2 = MDM2 (Homo sapiens, UniProt Q00987); test: Competitive fluorescence polarization assay for MDM2; type: binding; details: competitive FP assay, MDM2; for IC50: read-out: IC50 (MDM2); for Ki: read-out: Ki (MDM2)
MDM2, sequence (Q00987 1-125): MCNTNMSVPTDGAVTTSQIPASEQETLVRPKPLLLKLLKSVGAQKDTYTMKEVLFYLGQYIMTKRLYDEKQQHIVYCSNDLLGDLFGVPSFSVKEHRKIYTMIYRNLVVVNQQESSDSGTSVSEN

| Structure (SMILES) | 6.25 uM % Lysed cells (1 h LDH) (SJSA-1 cells) | 25 uM % Lysed cells (1 h LDH) (SJSA-1 cells) | 50 uM % Lysed cells (1 h LDH) (SJSA-1 cells) | caspase 0.3 uM (Caspase 3) | caspase 3 uM (Caspase 3) | caspase 10 uM (Caspase 3) | caspase 30 uM (Caspase 3) | caspase 1 uM (Caspase 3) | IC50 (MDMX) | Ki (MDMX) | IC50 (MDM2) | Ki (MDM2) |
| --- | --- | --- | --- | --- | --- | --- | --- | --- | --- | --- | --- | --- |
| CC[C@H](C)[C@H](NC(=O)[C@H](C)NC(=O)[C@H](C)NC(=O)[C@]1(C)CCCC=CCCCCCC[C@@](C)(NC(=O)[C@H](Cc2ccccc2)NC(=O)[C@@H](NC(=O)[C@H](CC(C)C)NC(C)=O)[C@@H](C)O)C(=O)N[C@@H](C)C(=O)N[C@@H](Cc2ccc(O)cc2)C(=O)N[C@@H](Cc2c[nH]c3ccccc23)C(=O)N[C@@H](C)C(=O)N[C@@H](CCC(N)=O)C(=O)N[C@@H](CC(C)C)C(=O)N1)C(=O)N[C@H](CC(C)C)C(N)=O (single isomer, unassigned) [compound 81] | 1% | 0% | 0% | 1 | 1 | 6 | 21 |  |  |  |  |  |
| CC(=O)N[C@@H](CC(C)C)C(=O)N[C@H](C(=O)N[C@@H](Cc1ccccc1)C(=O)N[C@]1(C)CCCCCCC=CCCC[C@@](C)(C(=O)N[C@@H](C)C(=O)N[C@@H](C)C(=O)N[C@@H](C)C(=O)N[C@@H](C)C(=O)N[C@@H](C)C(=O)N[C@H](C)C(N)=O)NC(=O)[C@H](CC(C)C)NC(=O)[C@H](CCC(N)=O)NC(=O)[C@H](C)NC(=O)[C@H](Cc2c[nH]c3cc(Cl)ccc23)NC(=O)[C@H](Cc2ccc(O)cc2)NC(=O)[C@H](C)NC1=O)[C@@H](C)O (single isomer, unassigned) [compound 338] | 0% | 0% | 1% | 1 | 23 | 20 | 29 | 5 |  |  |  |  |
| CC(=O)N[C@@H](CC(C)C)C(=O)N[C@H](C(=O)N[C@@H](Cc1ccccc1)C(=O)N[C@]1(C)CCCCCCC=CCCC[C@@](C)(C(=O)N[C@@H](CO)C(=O)N[C@@H](C)C(=O)N[C@@H](C)C(N)=O)NC(=O)[C@H](C2CCCC2)NC(=O)[C@H](CCC(N)=O)NC(=O)[C@H](C)NC(=O)[C@H](Cc2c[nH]c3ccccc23)NC(=O)[C@H](Cc2ccc(O)cc2)NC(=O)[C@H](CCC(=O)O)NC1=O)[C@@H](C)O (single isomer, unassigned) [compound 149] | 6% | 7% | 21% | 1 | 2 | 4 | 10 |  |  |  |  |  |
| CC(=O)N[C@@H](CC(C)C)C(=O)N[C@H](C(=O)N[C@@H](Cc1ccccc1)C(=O)N[C@]1(C)CCCCCC/C=C/CCC[C@@](C)(C(=O)N[C@@H](C)C(=O)N[C@@H](C)C(=O)N[C@@H](C)C(=O)N[C@@H](C)C(=O)N[C@@H](C)C(=O)N[C@H](C)C(N)=O)NC(=O)[C@H](CC(C)C)NC(=O)[C@H](CCC(N)=O)NC(=O)[C@H](C)NC(=O)[C@H](Cc2c[nH]c3ccccc23)NC(=O)[C@H](Cc2ccc(O)cc2)NC(=O)[C@H](CCC(=O)O)NC1=O)[C@@H](C)O [compound 331] (Ac-LTF[R8]EYWAQL[S5]AAAAA[dA]-NH2; staple (E) 4-11) | 0% | 0% | 0% | 4.5 | 11 | 14.5 | 30.5 | 8 |  |  |  |  |
| CC(=O)N[C@@H](CC(C)C)C(=O)N[C@H](C(=O)N[C@@H](Cc1ccccc1)C(=O)N[C@]1(C)CCCCCCC=CCCC[C@@](C)(C(=O)N[C@@H](C)C(=O)N[C@@H](Cc2c[nH]cn2)C(=O)N[C@@H](Cc2ccccc2)C(=O)N[C@@H](C)C(N)=O)NC(=O)[C@H](CC(C)C)NC(=O)[C@H](CCC(N)=O)NC(=O)[C@H](C)NC(=O)[C@H](Cc2c[nH]c3ccccc23)NC(=O)[C@H](Cc2c[nH]cn2)NC(=O)[C@H](C)NC1=O)[C@@H](C)O [compound 183] (Ac-LTF[R8]AHWAQL[S5]AHFA-NH2; staple 4-11) | 2% | 0% | 3% | 1 | 1 | 4 | 8 |  |  |  |  |  |
| CC[C@H](C)[C@H](NC(=O)[C@H](C)NC(=O)[C@H](C)NC(=O)[C@]1(C)CCCC=CCCCCCC[C@@](C)(NC(=O)[C@H](Cc2ccccc2)NC(=O)[C@@H](NC(=O)[C@H](CC(C)C)NC(C)=O)[C@@H](C)O)C(=O)N[C@@H](CCC(=O)O)C(=O)N[C@@H](Cc2ccc(C(=O)O)cc2)C(=O)N[C@@H](Cc2c[nH]c3cc(Cl)ccc23)C(=O)N[C@@H](C)C(=O)N[C@@H](CCC(N)=O)C(=O)N[C@@H](CC2CCC2)C(=O)N1)C(=O)N[C@H](C)C(N)=O (single isomer, unassigned) [compound 336] | 0% | 0% | 0% |  |  |  |  |  | 10 to 100 nM | < 10 nM | < 10 nM | < 10 nM |
| CC(=O)N[C@@H](CC(C)C)C(=O)N[C@H](C(=O)N[C@@H](Cc1ccccc1)C(=O)N[C@]1(C)CCCCCCC=CCCC[C@@](C)(C(=O)N[C@@H](CO)C(=O)N[C@@H](C)C(=O)N[C@H](C(N)=O)C2CCCCC2)NC(=O)[C@H](CC(C)C)NC(=O)[C@H](CCC(N)=O)NC(=O)[C@H](C)NC(=O)[C@H](Cc2c[nH]c3ccccc23)NC(=O)[C@H](Cc2ccc(O)cc2)NC(=O)[C@H](C)NC1=O)[C@@H](C)O [compound 9] (Ac-LTF[R8]AYWAQL[S5]SA[Chg]-NH2; staple 4-11) | −3% | 0% | 2% |  |  |  |  |  | 100 to 1000 nM | 10 to 100 nM | 100 to 1000 nM | 10 to 100 nM |
| CC(=O)N[C@@H](Cc1c[nH]cn1)C(=O)N[C@@H](CC(C)C)C(=O)N[C@H](C(=O)N[C@@H](Cc1ccccc1)C(=O)N[C@]1(C)CCCCCCC=CCCC[C@@](C)(C(=O)N[C@@H](C)C(=O)N[C@@H](C)C(=O)N[C@@H](CCC(C)C)C(=O)N[C@@H](C)C(N)=O)NC(=O)[C@H](CC(C)C)NC(=O)[C@H](CCC(N)=O)NC(=O)[C@H](Cc2c[nH]cn2)NC(=O)[C@H](Cc2c[nH]c3ccccc23)NC(=O)[C@H](Cc2c[nH]cn2)NC(=O)[C@H](Cc2c[nH]cn2)NC1=O)[C@@H](C)O [compound 32] (Ac-HLTF[R8]HHWHQL[S5]AA[hLeu]A-NH2; staple 5-12) | 0% | 2% | 0% |  |  |  |  |  | 100 to 1000 nM | 10 to 100 nM | 10 to 100 nM | < 10 nM |
| CCCC[C@H](NC(=O)[C@H](C)NC(=O)[C@H](CCC(N)=O)NC(=O)[C@H](Cc1c[nH]cn1)NC(=O)[C@]1(C)CCCC=CCCCCCC[C@@](C)(NC(=O)[C@H](Cc2ccccc2)NC(C)=O)C(=O)N[C@@H](C)C(=O)N[C@@H](Cc2ccc(O)cc2)C(=O)N[C@@H](Cc2c[nH]c3ccccc23)C(=O)N[C@@H](CO)C(=O)N[C@@H](C)C(=O)N[C@@H](CC(C)C)C(=O)N1)C(N)=O [compound 39] (Ac-F[R8]AYWSAL[S5]HQA[Nle]-NH2; staple 2-9) | 0% | 0% | 3% |  |  |  |  |  | 100 to 1000 nM | 100 to 1000 nM | > 1000 nM | 100 to 1000 nM |
| CC(=O)N[C@@H](Cc1ccccc1)C(=O)N[C@]1(C)CCCCCCC=CCCC[C@@](C)(C(=O)N[C@@H](C)C(=O)N[C@@H](C)C(=O)N[C@@H](Cc2ccccc2)C(N)=O)NC(=O)[C@H](CC(C)C)NC(=O)C2(CC2)NC(=O)[C@H](CCC(=O)O)NC(=O)[C@H](Cc2c[nH]c3ccccc23)NC(=O)[C@H](Cc2ccc(O)cc2)NC(=O)[C@H](C)NC1=O [compound 18] (Ac-F[R8]AYWE[Ac3c]L[S5]AAF-NH2; staple 2-9) | 0% | 2% | 4% |  |  |  |  |  | 10 to 100 nM | < 10 nM | 10 to 100 nM | < 10 nM |
| CCCC[C@H](NC(=O)[C@H](C)NC(=O)[C@H](CO)NC(=O)[C@]1(C)CCCC=CCCCCCC[C@@](C)(NC(=O)[C@H](Cc2ccccc2)NC(=O)[C@@H](NC(=O)[C@H](CC(C)C)NC(C)=O)[C@@H](C)O)C(=O)N[C@@H](C)C(=O)N[C@@H](Cc2ccc(O)cc2)C(=O)N[C@@H](Cc2c[nH]c3ccccc23)C(=O)N[C@@H](C)C(=O)N[C@@H](CCC(N)=O)C(=O)N[C@@H](CC(C)C)C(=O)N1)C(N)=O [compound 3] (Ac-LTF[R8]AYWAQL[S5]SA[Nle]-NH2; staple 4-11) | 1% | 1% | 3% |  |  |  |  |  | 100 to 1000 nM | 10 to 100 nM | 100 to 1000 nM | 10 to 100 nM |
